pEC50: −log10 of the molar value. Residues, ends and D or L forms follow the SMILES beside them. Groups on a side chain read outwards from the residue. *: point of attachment. C18 diacid = O=C(O)CCCCCCCCCCCCCCCCC(=O)*; Stearoyl = CCCCCCCCCCCCCCCCCC(=O)*; AEEA = NCCOCCOCC(=O)O
Assays:
human GLP-1 receptor = molecular target: T1, human GLP-1 receptor (Homo sapiens, UniProt P43220); assay: Functional receptor assay: cAMP formation in plasma membranes of BHK cells expressing the cloned human GLP-1 receptor (GLP1cAMPma); type: biochemical
T1 construct: expressed in transfected cells; host or cells: BHK cells, clone BHK-467-12A; plasma membrane preparation
Summary of the method: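 Membranes from BHK cells expressing human GLP-1 receptor (6 μg) were incubated 3 h at room temperature in Tris/HEPES buffer pH 7.4 with 1 mM ATP, 1 μM GTP and 0.5 mM IBMX. cAMP was quantified by AlphaScreen competition with biotinyl-cAMP. EC50 came from a four-parameter logistic fit.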

db/db mice = assay: Pharmacodynamic study using db/db mice (blood glucose after subcutaneous dosing); type: in vivo; details: 30 nmol/kg subcutaneous
Experimental: The efficacy and duration of action were measured after dosing of 30 nmol/kg to db/db mice. Male db/db mice were shipped from Taconic, Denmark at the age of 8-10 weeks. From the time of arrival, the mice were housed under standard conditions but at 24° C. The mice were kept 10 per cage until experimentation with free access to standard chow (Altromin, Brogaarden APS., Denmark) and tap water at a normal day: light cycle (light on at 6 am). […] After this, the mice were euthanized.
After an acclimatisation period of 1 week, the blood glucose was measured by sampling from the tail tip capillary. In brief, 5 μl blood was sampled in heparinised glass capillary tubes and immediately suspended in 250 μl EBIO buffer solution (Eppendorf, Germany) in an 1.5 ml Eppendorf tube. The blood glucose concentration was measured by the glucose oxidase method at the EBIO Plus Auto analyser (Eppendorf, Germany).
The cut of value for blood glucose was 10 mM. When evaluating the mice, it was considered essential, that all 42 mice entering the experiment had blood glucose values above 10 mM, but also that the inter-mice variance was small. Therefore, if many mice were not severely diabetic, whereas some were, the start up of experiments was postponed one week and new basal blood glucose measurements were made.
Based on the basal blood glucose values, the mice were allocated to 7 groups of n=6 with matching group mean blood glucose values.
On the day of testing the basal blood glucose morning values were assessed as described above and the basal body weight of each mouse was assessed. A time 0, the compound was dosed subcutaneously in the scruff of the neck (dosing volume app. 300 μl/50 g mouse).
The blood glucose values were followed up to 48 hours (time 1, 3, 6, 24 and 48 h) and the terminal body weight was assessed.
All data were entered into Graphpad Prism where mean blood glucose and mean delta body weights were calculated.

T1 sequence (P43220 24-463): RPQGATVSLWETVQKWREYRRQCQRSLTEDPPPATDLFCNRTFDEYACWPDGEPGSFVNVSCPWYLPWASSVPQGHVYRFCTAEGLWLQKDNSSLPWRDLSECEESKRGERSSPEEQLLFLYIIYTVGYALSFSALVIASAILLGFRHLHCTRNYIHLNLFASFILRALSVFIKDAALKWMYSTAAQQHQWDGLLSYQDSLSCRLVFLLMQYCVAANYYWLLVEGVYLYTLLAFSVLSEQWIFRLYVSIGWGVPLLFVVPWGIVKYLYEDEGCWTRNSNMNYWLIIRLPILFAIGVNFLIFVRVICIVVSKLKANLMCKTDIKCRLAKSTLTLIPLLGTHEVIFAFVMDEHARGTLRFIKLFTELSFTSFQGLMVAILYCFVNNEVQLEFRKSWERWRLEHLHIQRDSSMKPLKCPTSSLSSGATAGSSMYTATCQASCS

| SMILES | pEC50 (human GLP-1 receptor) | Delta AUC for blood glucose after 30 nmol/kg in db/db mice, 48 hours (db/db mice) |
| --- | --- | --- |
| CCCCCCCCCCCCCCCCCC(=O)NCCOCCOCC(=O)NCCOCCOCC(=O)NCCOCCOCC(=O)NCCCC[C@H](NC(=O)[C@@H](NC(=O)[C@H](C)NC(=O)[C@H](CCC(=O)O)NC(=O)[C@H](CCC(=O)O)NC(=O)[C@H](CCC(=O)O)NC(=O)[C@H](CC(C)C)NC(=O)[C@H](CCC(N)=O)NC(=O)[C@H](CCCNC(=N)N)NC(=O)[C@H](CO)NC(=O)[C@H](CC(C)C)NC(=O)[C@H](CC(=O)O)NC(=O)[C@H](CO)NC(=O)[C@@H](NC(=O)[C@H](Cc1ccccc1)NC(=O)[C@@H](NC(=O)CNC(=O)[C@H](CCC(=O)O)NC(=O)CNC(=O)[C@@H](N)Cc1c[nH]cn1)[C@@H](C)O)[C@@H](C)O)C(C)C)C(=O)N[C@@H](CC(C)C)C(=O)N[C@@H](Cc1ccccc1)C(=O)N[C@H](C(=O)N[C@@H](CCC(=O)O)C(=O)N[C@@H](Cc1c[nH]c2ccccc12)C(=O)N[C@@H](CC(C)C)C(=O)N[C@@H](CCCNC(=N)N)C(=O)N[C@@H](CCCNC(=N)N)C(=O)NCC(=O)NCC(=O)N1CCC[C@H]1C(=O)N[C@@H](CO)C(=O)N[C@@H](CO)C(=O)NCC(=O)N[C@@H](C)C(=O)N1CCC[C@H]1C(=O)N1CCC[C@H]1C(=O)N1CCC[C@H]1C(=O)N[C@@H](CO)C(N)=O)[C@@H](C)CC [Example 5, N-ε^20-(2-(2-(2-(2-(2-(2-(2-(2-(2-(Octadecanoylamino)ethoxy)ethoxy)acetylamino)ethoxy)ethoxy)acetyl-amino)ethoxy)ethoxy)acety))[Arg^12,27,28,Leu^14,Lys^20 Exendin-4(1-39)amide] (H-HGEGTFTSDLSRQLEEEAVK([AEEA-AEEA-AEEA-Stearoyl])LFIEWLRRGGPSSGAPPPS-NH2; N-terminus assumed) | 11.15 | −410 ± 111, *** mM × hour |
| CC[C@H](C)[C@H](NC(=O)[C@H](Cc1ccccc1)NC(=O)[C@H](CC(C)C)NC(=O)[C@H](CCCNC(=N)N)NC(=O)[C@@H](NC(=O)[C@H](C)NC(=O)[C@H](CCC(=O)O)NC(=O)[C@H](CCC(=O)O)NC(=O)[C@H](CCC(=O)O)NC(=O)[C@H](CC(C)C)NC(=O)[C@H](CCC(N)=O)NC(=O)[C@H](CCCNC(=N)N)NC(=O)[C@H](CO)NC(=O)[C@H](CC(C)C)NC(=O)[C@H](CC(=O)O)NC(=O)[C@H](CO)NC(=O)[C@@H](NC(=O)[C@H](Cc1ccccc1)NC(=O)[C@@H](NC(=O)CNC(=O)[C@H](CCC(=O)O)NC(=O)CNC(=O)[C@@H](N)Cc1c[nH]cn1)[C@@H](C)O)[C@@H](C)O)C(C)C)C(=O)N[C@@H](CCC(=O)O)C(=O)N[C@@H](Cc1c[nH]c2ccccc12)C(=O)N[C@@H](CC(C)C)C(=O)N[C@@H](CCCNC(=N)N)C(=O)N[C@@H](CC(N)=O)C(=O)NCC(=O)NCC(=O)N1CCC[C@H]1C(=O)N[C@@H](CO)C(=O)N[C@@H](CO)C(=O)N[C@@H](CCCCNC(=O)COCCOCCNC(=O)CCCCCCCCCCCCCCCCC(=O)O)C(=O)N[C@@H](C)C(=O)N1CCC[C@H]1C(=O)N1CCC[C@H]1C(=O)N1CCC[C@H]1C(=O)N[C@@H](CO)C(N)=O [Example 8, N-ε^34-(2-(2-(2-(17-carboxyheptadecanoylamino)ethoxy)ethoxy)acetyl) [Leu^14,Arg^12,27,Lys^34]Exendin-4(1-39)amide] (H-HGEGTFTSDLSRQLEEEAVRLFIEWLRNGGPSSK([AEEA-C18 diacid])APPPS-NH2) | 9.36 | −500 ± 122, *** mM × hour |
